# Source: patent US20250235543A1, “MODIFIED PROTEINS AND PROTEIN DEGRADERS” (Cullgen (Shanghai), Inc., priority 2021, published 2025)
# Key:
# CDK4 = target: T1, CDK4 (Homo sapiens, UniProt P11802); experiment: CDK4 percentage degradation in Calu-1 cells (immunoblotting); format: cell-based; details: Calu-1 cells, 16 hours; for inhibition at 0.2 µM: 200 nM, read-out: CDK4 Degradation (200 nM)
# T1 construct: endogenous in cells; host or cells: Calu-1
# Summary of the method: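 Cultured cells were rinsed once in cold PBS and lysed in cold RIPA buffer containing protease and phosphatase inhibitors, with gentle agitation at 4° C. for 30 min. Lysates were centrifuged at 13,000 rpm for 10 min at 4° C., and protein was quantified by BCA. Samples were then separated by SDS-PAGE, detected with ECL, and the CDK4 bands quantified in Image Lab.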
# cyclin D1 = experiment: Cyclin D1 percentage degradation in Calu-1 cells (immunoblotting); format: cell-based; details: 16 hours
# Summary of the method: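 Cells were rinsed once in cold PBS and lysed in cold RIPA buffer containing protease and phosphatase inhibitors, with gentle agitation at 4° C. for 30 min. Lysates were spun at 13,000 rpm for 10 min at 4° C., protein was measured by BCA, and samples were boiled in Laemmli buffer at 99° C. for 5 min before SDS-PAGE immunoblotting.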
# T1 sequence (P11802 2-303 limits assumed): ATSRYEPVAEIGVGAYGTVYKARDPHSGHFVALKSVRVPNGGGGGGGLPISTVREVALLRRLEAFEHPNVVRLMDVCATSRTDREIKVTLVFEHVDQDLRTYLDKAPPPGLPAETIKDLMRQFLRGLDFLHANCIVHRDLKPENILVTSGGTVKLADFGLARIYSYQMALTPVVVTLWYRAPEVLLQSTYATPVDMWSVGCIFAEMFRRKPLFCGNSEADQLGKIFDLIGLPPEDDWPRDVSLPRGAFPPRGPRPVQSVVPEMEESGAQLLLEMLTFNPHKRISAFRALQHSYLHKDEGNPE
# T1 sequence (P24385 whole entry partner): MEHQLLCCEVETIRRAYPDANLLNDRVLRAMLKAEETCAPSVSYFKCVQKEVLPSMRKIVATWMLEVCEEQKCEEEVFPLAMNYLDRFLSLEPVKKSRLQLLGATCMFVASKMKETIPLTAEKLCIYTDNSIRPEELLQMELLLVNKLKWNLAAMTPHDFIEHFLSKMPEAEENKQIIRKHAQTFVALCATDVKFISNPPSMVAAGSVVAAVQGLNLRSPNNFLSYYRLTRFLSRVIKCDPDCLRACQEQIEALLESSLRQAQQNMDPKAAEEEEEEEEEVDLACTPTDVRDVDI
# T1 sequence (Q16531 2-1140 limits assumed, further chain): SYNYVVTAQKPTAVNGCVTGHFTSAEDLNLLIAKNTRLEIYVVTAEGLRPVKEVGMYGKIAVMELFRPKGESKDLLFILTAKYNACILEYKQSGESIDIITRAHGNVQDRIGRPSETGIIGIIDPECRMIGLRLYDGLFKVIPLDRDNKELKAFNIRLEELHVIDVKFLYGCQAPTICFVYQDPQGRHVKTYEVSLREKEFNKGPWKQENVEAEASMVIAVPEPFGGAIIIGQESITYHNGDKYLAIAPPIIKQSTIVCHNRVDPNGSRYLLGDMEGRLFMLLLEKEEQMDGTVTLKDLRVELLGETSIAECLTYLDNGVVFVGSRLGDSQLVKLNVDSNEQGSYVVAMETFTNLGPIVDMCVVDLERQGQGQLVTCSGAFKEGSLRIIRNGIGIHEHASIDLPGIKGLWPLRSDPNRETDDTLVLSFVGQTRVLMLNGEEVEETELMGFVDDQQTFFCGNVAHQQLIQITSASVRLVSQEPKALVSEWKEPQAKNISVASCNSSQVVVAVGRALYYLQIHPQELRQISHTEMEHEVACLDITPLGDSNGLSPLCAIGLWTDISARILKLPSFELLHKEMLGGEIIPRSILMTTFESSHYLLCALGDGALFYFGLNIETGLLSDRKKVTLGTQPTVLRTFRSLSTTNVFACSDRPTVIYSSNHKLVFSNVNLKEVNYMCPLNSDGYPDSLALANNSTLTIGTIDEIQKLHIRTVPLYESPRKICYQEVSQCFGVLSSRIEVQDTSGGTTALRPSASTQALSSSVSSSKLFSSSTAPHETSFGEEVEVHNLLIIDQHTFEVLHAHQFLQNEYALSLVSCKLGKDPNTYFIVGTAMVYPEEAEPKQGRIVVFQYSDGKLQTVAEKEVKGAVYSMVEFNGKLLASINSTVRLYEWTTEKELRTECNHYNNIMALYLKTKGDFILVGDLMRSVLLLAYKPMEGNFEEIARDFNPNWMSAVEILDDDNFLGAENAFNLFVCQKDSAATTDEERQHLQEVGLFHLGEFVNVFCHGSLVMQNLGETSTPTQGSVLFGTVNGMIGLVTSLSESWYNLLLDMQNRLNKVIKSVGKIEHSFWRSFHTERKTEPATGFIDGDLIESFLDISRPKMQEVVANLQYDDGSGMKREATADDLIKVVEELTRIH
inhibition at 0.2 µM (CDK4) [%],"inhibition at 10 µM (CDK4; 10 μM, read-out: CDK4 Degradation (10 μM)) [%]",Structure (SMILES),CyclinD1 Degradation (200 nM) (cyclin D1),CyclinD1 Degradation (10 μM) (cyclin D1; 10 μM)
< 30,–,"CC(=O)c1c(C)c2cnc(Nc3ccc(N4CCN(CC(=O)NCCOCCOCCC(=O)Nc5ccccc5C(=O)Nc5nc(C6CCOCC6)c(C)s5)CC4)cn3)nc2n(C2CCCC2)c1=O [CPD-062, 2-(3-(2-(2-(2-(4-(6-((6-Acetyl-8-cyclopentyl-5-methyl-7-oxo-7,8-dihydropyrido[2,3-d]pyrimidin-2-yl)amino)pyridin-3-yl)piperazin-1-yl)acetamido)ethoxy)ethoxy)propanamido)-N-(5-methyl-4-(tetrahydro-2H-pyran-4-yl)thiazol-2-yl)benzamide]",D (protein percentage degradation <30%),–
< 30,–,"COc1ccc(NC(=O)c2cccc(NCCOCCOCCNC(=O)CN3CCN(c4ccc(Nc5ncc6c(C)c(C(C)=O)c(=O)n(C7CCCC7)c6n5)nc4)CC3)c2C)nn1 [CPD-341, 3-((2-(2-(2-(2-(4-(6-((6-Acetyl-8-cyclopentyl-5-methyl-7-oxo-7,8-dihydropyrido[2,3-d]pyrimidin-2-yl)amino)pyridin-3-yl)piperazin-1-yl)acetamido)ethoxy)ethoxy)ethyl)amino)-N-(6-methoxypyridazin-3-yl)-2-methylbenzamide]",D (protein percentage degradation <30%),–
< 30,–,"CC(=O)c1c(C)c2cnc(Nc3ccc(N4CCN(CC(=O)NCCOCCOCCNC(=O)CNc5ccc(C(=O)Nc6ncc(C)s6)c(C)c5)CC4)cn3)nc2n(C2CCCC2)c1=O [CPD-017, 4-((14-(4-(6-((6-Acetyl-8-cyclopentyl-5-methyl-7-oxo-7,8-dihydropyrido[2,3-d]pyrimidin-2-yl)amino)pyridin-3-yl)piperazin-1-yl)-2,13-dioxo-6,9-dioxa-3,12-diazatetradecyl)amino)-2-methyl-N-(5-methylthiazol-2-yl)benzamide]",D (protein percentage degradation <30%),–
< 30,–,"CC(=O)c1c(C)c2cnc(Nc3ccc(N4CCN(CC(=O)NCCNc5cccc(C(=O)Nc6nc(C)c(C)s6)c5C)CC4)cn3)nc2n(C2CCCC2)c1=O [CPD-092, 3-((2-(2-(4-(6-((6-Acetyl-8-cyclopentyl-5-methyl-7-oxo-7,8-dihydropyrido[2,3-d]pyrimidin-2-yl)amino)pyridin-3-yl)piperazin-1-yl)acetamido)ethyl)amino)-N-(4,5-dimethylthiazol-2-yl)-2-methylbenzamide]",D (protein percentage degradation <30%),–
50 to 80,–,"CC(=O)c1c(C)c2cnc(Nc3ccc(N4CCN(CC(=O)NCCOCCOCCC(=O)Nc5ccccc5C(=O)Nc5ccc(C)s5)CC4)cn3)nc2n(C2CCCC2)c1=O [CPD-065, 2-(3-(2-(2-(2-(4-(6-((6-Acetyl-8-cyclopentyl-5-methyl-7-oxo-7,8-dihydropyrido[2,3-d]pyrimidin-2-yl)amino)pyridin-3-yl)piperazin-1-yl)acetamido)ethoxy)ethoxy)propanamido)-N-(5-methylthiophen-2-yl)benzamide]",A (protein percentage degradation >=80%),–
–,50 to 80,"Cc1nc(NC(=O)c2ccccc2NC(=O)CCOCCOCCOCCOCCOCCOCCNC(=O)CN2CCN(c3ccc(Nc4ncc5cc6n(c5n4)C4(CCCCC4)CNC6=O)nc3)CC2)sc1C [CPD-327, N-(4,5-Dimethylthiazol-2-yl)-2-(2-oxo-1-(4-(6-((6′-oxo-7′,8′-dihydro-6′H-spiro[cyclohexane-1,9′-pyrazino[1′,2′:1,5]pyrrolo[2,3-d]pyrimidin]-2′-yl)amino)pyridin-3-yl)piperazin-1-yl)-6,9,12,15,18,21-hexaoxa-3-azatetracosan-24-amido)benzamide]",–,A (protein percentage degradation >= 80%)
